Test system: IL-2 production
Assay: Inhibition of IL-2 production in PHA-activated Jurkat cells (ELISA)
Assay type: cell-based
Conditions: Homo sapiens, PHA 2.5 μg/mL, 20 hours, IL-2 ELISA
Procedure: Jurkat cells were placed in a 96 well plate (0.5 million cells per well in 1% FBS medium) then a test compound of this invention was added at different concentrations. After 10 minutes, the cells were activated with PHA (final concentration 2.5 μg/mL) and incubated for 20 hours at 37° C. under CO2. The final volume was 200 μL. Following incubation, the cells were centrifuged and the supernatants were collected and stored at −70° C. prior to assaying for IL-2 production. A commercial ELISA kit (IL-2 Eli-pair, Diaclone Research, Besancon, France) was used to detect production of IL-2, from which dose response curves were obtained. The IC50 value was calculated as the concentration at which 50% of maximum IL-2 production after stimulation was inhibited versus a non-stimulation control.

Row | IC50 [nM] | Structure (SMILES)
1 | 173 | COc1ccc2c(c1)nc(C(F)(F)F)n2-c1cnc(NC(=O)c2cccc(I)c2)cn1 [Compound 112, 3-Iodo-N-[5-(5-methoxy-2-trifluoromethyl-benzoimidazol-1-yl)-pyrazin-2-yl]-benzamide]
2 | 18 | COc1ccc2c(c1)nc(C(F)(F)F)n2-c1cnc(NC(=O)c2ccc(Br)cc2)cn1 [Compound 107, 4-Bromo-N-[5-(5-methoxy-2-trifluoromethyl-benzoimidazol-1-yl)-pyrazin-2-yl]-benzamide]
3 | > 1000 | COc1ccc2c(c1)nc(C(F)(F)F)n2-c1cnc(NC(=O)c2ccc(C(C)(C)C)cc2)cn1 [Compound 132, 4-tert-Butyl-N-[5-(5-methoxy-2-trifluoromethyl-benzoimidazol-1-yl)-pyrazin-2-yl]-benzamide]
4 | 295 | COc1ccc(C(=O)Nc2cnc(-n3c(C(F)(F)F)nc4cc(OC)ccc43)cn2)cc1 [Compound 120, 4-Methoxy-N-[5-(5-methoxy-2-trifluoromethyl-benzoimidazol-1-yl)-pyrazin-2-yl]-benzamide]
5 | > 1000 | COc1cc(OC)cc(C(=O)Nc2cnc(-n3c(C(F)(F)F)nc4cc(OC)ccc43)cn2)c1 [Compound 129, 3,5-Dimethoxy-N-[5-(5-methoxy-2-trifluoromethyl-benzoimidazol-1-yl)-pyrazin-2-yl]-benzamide]
6 | 384 | COc1ccc2c(c1)nc(C(F)(F)F)n2-c1cnc(NC(=O)c2ccc(Cl)cc2)cn1 [Compound 91, 4-Chloro-N-[5-(5-methoxy-2-trifluoromethyl-benzoimidazol-1-yl)-pyrazin-2-yl]-benzamide]
7 | > 1000 | COc1ccc(C(=O)Nc2cnc(-n3c(C(F)(F)F)nc4cc(OC)ccc43)cn2)c(OC)c1 [Compound 124, 2,4-Dimethoxy-N-[5-(5-methoxy-2-trifluoromethyl-benzoimidazol-1-yl)-pyrazin-2-yl]-benzamide]
8 | > 1000 | COc1ccc2c(c1)nc(C(F)(F)F)n2-c1cnc(NC(=O)c2ccc(Cl)cc2OC)cn1 [Compound 134, 4-Chloro-2-methoxy-N-[5-(5-methoxy-2-trifluoromethyl-benzoimidazol-1-yl)-pyrazin-2-yl]-benzamide]
9 | > 1000 | COc1ccc2c(c1)nc(C(F)(F)F)n2-c1cnc(NC(=O)c2ccc(Cl)c([N+](=O)[O-])c2)cn1 [Compound 139, 4-Chloro-N-[5-(5-methoxy-2-trifluoromethyl-benzoimidazol-1-yl)-pyrazin-2-yl]-3-nitro-benzamide]
10 | 2 | CCc1ccc(C(=O)Nc2cnc(-n3c(C(F)(F)F)nc4cc(OC)ccc43)cn2)cc1 [Compound 106, 4-Ethyl-N-[5-(5-methoxy-2-trifluoromethyl-benzoimidazol-1-yl)-pyrazin-2-yl]-benzamide]
11 | 150 | COc1ccc2c(c1)nc(C(F)(F)F)n2-c1cnc(NC(=O)c2ccc(F)cc2)cn1 [Compound 86, 4-Fluoro-N-[5-(5-methoxy-2-trifluoromethyl-benzoimidazol-1-yl)-pyrazin-2-yl]-benzamide]
12 | 105 | COc1ccc(C(=O)Nc2cnc(-n3c(C(F)(F)F)nc4cc(OC)ccc43)cn2)c(F)c1 [Compound 127, 2-Fluoro-4-methoxy-N-[5-(5-methoxy-2-trifluoromethyl-benzoimidazol-1-yl)-pyrazin-2-yl]-benzamide]
13 | 130 | COc1ccc2c(c1)nc(C(F)(F)F)n2-c1cnc(NC(=O)c2cc(Br)ccc2F)cn1 [Compound 130, 5-Bromo-2-fluoro-N-[5-(5-methoxy-2-trifluoromethyl-benzoimidazol-1-yl)-pyrazin-2-yl]-benzamide]
14 | 55 | COc1ccc2c(c1)nc(C(F)(F)F)n2-c1cnc(NC(=O)c2ccc(Cl)cc2F)cn1 [Compound 9, 4-Chloro-2-fluoro-N-[5-(5-methoxy-2-trifluoromethyl-benzoimidazol-1-yl)-pyrazin-2-yl]-benzamide]
15 | 101 | COc1ccc2c(c1)nc(C(F)(F)F)n2-c1cnc(NC(=O)c2cccc(F)c2)cn1 [Compound 88, 3-Fluoro-N-[5-(5-methoxy-2-trifluoromethyl-benzoimidazol-1-yl)-pyrazin-2-yl]-benzamide]
16 | > 1000 | COc1ccc2c(c1)nc(C(F)(F)F)n2-c1cnc(NC(=O)c2cc(Cl)ccc2OC)cn1 [Compound 152, 5-Chloro-2-methoxy-N-[5-(5-methoxy-2-trifluoromethyl-benzoimidazol-1-yl)-pyrazin-2-yl]-benzamide]
17 | 33 | COc1ccc2c(c1)nc(C(F)(F)F)n2-c1cnc(NC(=O)c2ccc(F)cc2F)cn1 [Compound 7, 2,4-Difluoro-N-[5-(5-methoxy-2-trifluoromethyl-benzoimidazol-1-yl)-pyrazin-2-yl]-benzamide]
18 | 40 | COc1ccc2c(c1)nc(C(F)(F)F)n2-c1cnc(NC(=O)c2ccc(C)cc2)cn1 [Compound 118, N-[5-(5-Methoxy-2-trifluoromethyl-benzoimidazol-1-yl)-pyrazin-2-yl]-4-methyl-benzamide]
19 | > 1000 | COc1ccc2c(c1)nc(C(F)(F)F)n2-c1cnc(NC(=O)c2ccc(C(C)C)cc2)cn1 [Compound 141, 4-Isopropyl-N-[5-(5-methoxy-2-trifluoromethyl-benzoimidazol-1-yl)-pyrazin-2-yl]-benzamide]
20 | 17 | COc1ccc2c(c1)nc(C(F)(F)F)n2-c1cnc(NC(=O)c2cccc(C)c2C)cn1 [Compound 92, N-[5-(5-Methoxy-2-trifluoromethyl-benzoimidazol-1-yl)-pyrazin-2-yl]-2,3-dimethyl-benzamide]
21 | 73 | COc1ccc2c(c1)nc(C(F)(F)F)n2-c1cnc(NC(=O)c2cc(C)ccc2C)cn1 [Compound 122, N-[5-(5-Methoxy-2-trifluoromethyl-benzoimidazol-1-yl)-pyrazin-2-yl]-2,5-dimethyl-benzamide]

The next lines start with the compound.

Row | Structure (SMILES) | IC50 [nM]
22 | COc1ccc2c(c1)nc(C(F)(F)F)n2-c1cnc(NC(=O)c2ccc([N+](=O)[O-])cc2F)cn1 [Compound 150, 2-Fluoro-N-[5-(5-methoxy-2-trifluoromethyl-benzoimidazol-1-yl)-pyrazin-2-yl]-4-nitro-benzamide] | 126
23 | COc1ccc2c(c1)nc(C(F)(F)F)n2-c1cnc(NC(=O)c2ccccc2Cl)cn1 [Compound 99, 2-Chloro-N-[5-(5-methoxy-2-trifluoromethyl-benzoimidazol-1-yl)-pyrazin-2-yl]-benzamide] | 52
24 | COc1ccc2c(c1)nc(C(F)(F)F)n2-c1cnc(NCc2ccccc2)cn1 [Compound 115, Benzyl-[5-(5-methoxy-2-trifluoromethyl-benzoimidazol-1-yl)-pyrazin-2-yl]-amine] | > 1000
25 | COc1ccc2c(c1)nc(C(F)(F)F)n2-c1cnc(NC(=O)c2cccc(Cl)c2Cl)cn1 [Compound 113, 2,3-Dichloro-N-[5-(5-methoxy-2-trifluoromethyl-benzoimidazol-1-yl)-pyrazin-2-yl]-benzamide] | 22
26 | COc1ccc2c(c1)nc(C(F)(F)F)n2-c1cnc(NCc2ccc(F)cc2)cn1 [Compound 89, (4-Fluoro-benzyl)-[5-(5-methoxy-2-trifluoromethyl-benzoimidazol-1-yl)-pyrazin-2-yl]-amine] | > 1000
27 | COc1ccc2c(c1)nc(C(F)(F)F)n2-c1cnc(NC(=O)c2cc(F)ccc2Cl)cn1 [Compound 151, 2-Chloro-5-fluoro-N-[5-(5-methoxy-2-trifluoromethyl-benzoimidazol-1-yl)-pyrazin-2-yl]-benzamide] | 27
28 | COc1ccc2c(c1)nc(C(F)(F)F)n2-c1cnc(NCc2c(F)cccc2F)cn1 [Compound 37, (2,6-Difluoro-benzyl)-[5-(5-methoxy-2-trifluoromethyl-benzoimidazol-1-yl)-pyrazin-2-yl]-amine] | 103
29 | COc1ccc2c(c1)nc(C(F)(F)F)n2-c1cnc(NCC2CCCCC2)cn1 [Compound 73, Cyclohexylmethyl-[5-(5-methoxy-2-trifluoromethyl-benzoimidazol-1-yl)-pyrazin-2-yl]-amine] | > 1000
30 | COc1ccc2c(c1)nc(C(F)(F)F)n2-c1cnc(NC(=O)c2ccncc2F)cn1 [Compound 3, 3-Fluoro-N-[5-(5-methoxy-2-trifluoromethyl-benzoimidazol-1-yl)-pyrazin-2-yl]-isonicotinamide] | 79
31 | COc1ccc2c(c1)nc(C(F)(F)F)n2-c1cnc(NC(=O)c2cccc([N+](=O)[O-])c2)cn1 [Compound 98, N-[5-(5-Methoxy-2-trifluoromethyl-benzoimidazol-1-yl)-pyrazin-2-yl]-3-nitro-benzamide] | 104
32 | COc1ccc(CNc2cnc(-n3c(C(F)(F)F)nc4cc(OC)ccc43)cn2)cc1 [Compound 90, (4-Methoxy-benzyl)-[5-(5-methoxy-2-trifluoromethyl-benzoimidazol-1-yl)-pyrazin-2-yl]-amine] | > 1000
33 | COC(=O)c1ccc2c(c1)nc(C(F)(F)F)n2-c1cnc(NC(=O)c2ccncc2C)cn1 [Compound 28, 1-{5-[(3-Methyl-pyridine-4-carbonyl)-amino]-pyrazin-2-yl}-2-trifluoromethyl-1H-benzoimidazole-5-carboxylic acid methyl ester] | 112
34 | CCOc1ccccc1C(=O)Nc1cnc(-n2c(C(F)(F)F)nc3cc(OC)ccc32)cn1 [Compound 123, 2-Ethoxy-N-[5-(5-methoxy-2-trifluoromethyl-benzoimidazol-1-yl)-pyrazin-2-yl]-benzamide] | > 1000
35 | CCCCCc1ccc(C(=O)Nc2cnc(-n3c(C(F)(F)F)nc4cc(OC)ccc43)cn2)cc1 [Compound 131, N-[5-(5-Methoxy-2-trifluoromethyl-benzoimidazol-1-yl)-pyrazin-2-yl]-4-pentyl-benzamide] | 331
36 | COc1ccc2c(c1)nc(C(F)(F)F)n2-c1cnc(NCc2ccncc2)cn1 [Compound 105, [5-(5-Methoxy-2-trifluoromethyl-benzoimidazol-1-yl)-pyrazin-2-yl]-pyridin-4-ylmethyl-amine] | > 1000

— patent publication US8119643B2, “Benzoimidazolyl-pyrazine compounds for inflammation and immune-related uses” (Synta Pharmaceuticals Corp., priority 2006, dated 2012)
